Data: patent publication US4857508A, “Novel platelet-aggregation inhibitor peptide derivatives” (Monsanto Company, priority 1987, dated 1989)
Where two headings read alike, the source gives them in different places. Non-standard residues stand in square brackets, D forms with d. Residues, ends and D or L forms follow the SMILES beside them.

Tests used:
[1] = molecular target: human platelets in platelet-rich plasma (Homo sapiens, UniProt P05106+P08514); assay: In-vitro human platelet aggregation in platelet-rich plasma (PRP), ADP-induced; format: cell-based; details: for IC50: linear regression of dose response curve
human platelets in platelet-rich plasma, sequence (P08514 32-1039): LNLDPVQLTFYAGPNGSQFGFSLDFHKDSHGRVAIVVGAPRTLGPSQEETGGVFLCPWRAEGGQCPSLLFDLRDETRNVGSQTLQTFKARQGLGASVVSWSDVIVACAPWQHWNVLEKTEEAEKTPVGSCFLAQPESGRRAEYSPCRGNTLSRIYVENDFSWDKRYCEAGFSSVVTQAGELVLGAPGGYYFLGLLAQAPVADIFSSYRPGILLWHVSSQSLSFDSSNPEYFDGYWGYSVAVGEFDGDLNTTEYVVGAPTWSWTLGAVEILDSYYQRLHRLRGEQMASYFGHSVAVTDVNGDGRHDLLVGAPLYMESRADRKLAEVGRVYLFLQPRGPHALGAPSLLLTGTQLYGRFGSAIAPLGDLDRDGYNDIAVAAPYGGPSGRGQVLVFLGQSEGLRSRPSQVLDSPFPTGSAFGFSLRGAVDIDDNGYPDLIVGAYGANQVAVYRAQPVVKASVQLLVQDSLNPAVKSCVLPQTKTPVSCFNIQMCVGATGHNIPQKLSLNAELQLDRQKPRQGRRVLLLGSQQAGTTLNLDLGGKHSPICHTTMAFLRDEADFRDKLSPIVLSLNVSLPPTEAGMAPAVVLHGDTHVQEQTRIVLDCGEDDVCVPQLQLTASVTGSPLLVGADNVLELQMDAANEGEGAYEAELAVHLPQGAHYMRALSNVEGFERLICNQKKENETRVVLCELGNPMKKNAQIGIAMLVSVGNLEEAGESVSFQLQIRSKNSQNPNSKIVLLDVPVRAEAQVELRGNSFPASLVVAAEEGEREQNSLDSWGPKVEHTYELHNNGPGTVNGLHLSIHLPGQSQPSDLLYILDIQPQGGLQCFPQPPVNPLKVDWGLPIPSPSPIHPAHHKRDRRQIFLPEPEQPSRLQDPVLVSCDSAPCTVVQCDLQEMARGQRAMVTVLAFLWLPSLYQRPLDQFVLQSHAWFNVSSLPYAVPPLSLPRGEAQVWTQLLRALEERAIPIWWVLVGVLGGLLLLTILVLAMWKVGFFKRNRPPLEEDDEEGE
human platelets in platelet-rich plasma, sequence (P05106 27-788): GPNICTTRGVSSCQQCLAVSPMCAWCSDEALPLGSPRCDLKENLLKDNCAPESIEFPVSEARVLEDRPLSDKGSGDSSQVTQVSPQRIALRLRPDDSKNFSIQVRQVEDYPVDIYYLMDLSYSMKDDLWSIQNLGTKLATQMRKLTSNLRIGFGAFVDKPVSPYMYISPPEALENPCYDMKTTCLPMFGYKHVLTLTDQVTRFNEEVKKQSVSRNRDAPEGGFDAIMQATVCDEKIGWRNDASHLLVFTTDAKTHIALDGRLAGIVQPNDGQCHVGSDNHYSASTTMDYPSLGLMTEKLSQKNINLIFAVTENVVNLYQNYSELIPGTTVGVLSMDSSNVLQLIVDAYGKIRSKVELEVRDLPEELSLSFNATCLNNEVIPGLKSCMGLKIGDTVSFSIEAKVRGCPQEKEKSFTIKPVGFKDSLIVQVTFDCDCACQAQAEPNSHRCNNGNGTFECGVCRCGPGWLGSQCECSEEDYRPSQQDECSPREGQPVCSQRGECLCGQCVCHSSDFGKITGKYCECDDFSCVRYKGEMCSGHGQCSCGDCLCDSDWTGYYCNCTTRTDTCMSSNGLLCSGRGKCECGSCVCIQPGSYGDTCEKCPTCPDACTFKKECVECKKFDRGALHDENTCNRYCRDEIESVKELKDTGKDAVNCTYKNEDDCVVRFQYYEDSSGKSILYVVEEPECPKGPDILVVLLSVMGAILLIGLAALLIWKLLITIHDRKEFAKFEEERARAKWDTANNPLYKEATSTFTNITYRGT
Description: In another assay, platelet aggregation is examined in platelet-rich plasma which also is rich in fibrinogen and other plasma proteins.
The syringe is rotated carefully as blood is being drawn to mix the citrate. Platelet-rich plasma (PRP) is prepared by centrifugation at 100×g for 10 minutes at room temperature, allowing the centrifuge to coast to a stop without braking. The PRP is removed from the blood with a plastic pipette and placed in a plastic, capped, 50 ml Corning conical sterile centrifuge tube. The tube is capped and placed at room temperature. Platelet poor plasma (PPP) is prepared by centrifuging the remaining blood at 2000×g for 15 minutes at room temperature allowing the centrifuge to coast to a stop without braking. The PRP is adjusted with PPP to a count of 2-3×10^8 platelets per ml. 400 μl of the PRP preparation and 50 μl of the compound to be tested or saline were preincubated for 1 minute at 37° C. in a Payton aggregometer (Payton Scientific, Inc., Buffalo, NY). 50 μl of adenosine 5'diphosphate (ADP) (50 μM) is added to the cuvettes and the aggregation is monitored for 1 minute. All compounds are tested in duplicate. The entire procedure is run within 3 hours, since this is the maximal viability of the platelets. The saline instead of compound is used to determine the maximal aggregation.

washed human platelets = washed human platelets (Homo sapiens, UniProt P05106+P08514); assay: Inhibition of thrombin-induced platelet aggregation in washed human platelets; format: cell-based; details: for IC50: linear regression of dose response curve; for inhibition at 100 µM: peptide 10^-4 M
washed human platelets, sequence (P08514 32-1039): as the sequence (P08514 32-1039) above
washed human platelets, sequence (P05106 27-788): as the sequence (P05106 27-788) above
Description: In one assay, the peptides are tested for their inhibition of thrombin-induced platelet aggregation in washed human platelets. The % inhibition is determined for the test peptide by comparing the extent of platelet aggregation in the presence and absence of the peptide.
Platelet Preparation: 60 ml of whole blood is freshley drawn and anticoagulated with 1/10th volume of CCD (100 mM Na Citrate and 136 mM glucose, pH 6.5 with HCl) at room temperature (RT). The blood is divided into 2 disposable 60 ml plastic centrifuge tubes and centrifuged for 3 minutes at 1000×g, allowing the centrifuge to coast to a stop (no brake). The platelet rich plasma (PRP) is withdrawn, being careful that no white cells are taken and is placed in a 60 ml centrifuge tube. The tube is immediately placed on ice for 15 minutes. After the 15 minutes at 0° C., 1/2 volume of ice cold CCD is added (i.e. 15 ml CCD/30 ml of PRP). The tube is mixed and the contents are divided equally into two centrifuge tubes. These are then centrifuged at 0° C. for 10 minutes at 900×g (no brake). The supernatant is carefully poured off. The platelet pellet is gently resuspended in 1/2 the original volume of PRP in a 0° C. modified Tangen-Hepes-BSA buffer, pH 7.4, consisting of 145 mM NaCl, 5 mM KCl, 0.05 mM CaCl2, 0.1 mM MgCl2, 11 mM glucose, 15 mM Hepes (N-2-hydroxyethylpiperazine-N'-2-ethanesulfonic acid), 1 mg/ml bovine serum albumin, (pH adjusted with NaOH). The resuspended pellets are combined into 1 centrifuge tube and incubated undisturbed at 37° C. for 30 minutes. After the incubation, the platelet suspension is removed and an aliquot is quickly counted in a hemocytometer or a Coulter® Counter (Coulter Electronics, Hialeah, Fla.). The platelet count is adjusted to 3×10^8 cells/ml with the Tangen-Hepes-BSA buffer.
Compound Testing: Aggregation studies are accomplished using a Payton aggregometer (Payton Scientific, Inc., Buffalo, N.Y.). […] All compounds are diluted to a working concentration of 10^-3 M with double distilled water. The reaction mixture consisted of 400 μl of 3×10^8 /ml washed platelets, 50 μl of buffer (control) or test compound at 10^-3 M with a final concentration of 10^-4 M. Platelets, test compound or buffer are placed in cuvettes in the aggregometer for a 1 minute preincubation before adding thrombin. 50 μl of 0.5 U/ml thrombin is added to cuvettes and the aggregation is monitored for 1 minute, which is the time for maximal aggregation of the platelets. All compounds are run in duplicate. The entire test is run within 3 hours, since this is the maximal viability of the platlets.

[2] = test system: collagen induced thrombocytopenia (platelet aggregation); assay: In vivo rat thrombocytopenia (collagen induced); details: for % Inhibition at 1 mg/kg: collagen 60 μg/kg; for inhibition in the in vivo thrombocytopenia assay: dose not printed there
Description: In yet another test, the effect of the peptide on collagen induced thrombocytopenia (platelet aggregation) is measured in vivo in the art. Again, the % inhibition is determined for the test peptide and compared against a saline or ethanol vehicle in the absence of peptide.
Male rats (Charles River, CRL:CD(SD), 400-450 g) were used. The rats were anesthetized with Na pentabarbital (65 mg/kg, Vet Labs, Limited, Inc., Lenexa, KA). Two incisions were made to expose both jugular veins. Using an infusion pump (Harvard Apparatus, South Natick, Mass.) and a 5 cc syringe with a 19 g. butterfly, the test compound or vehicle was infused into the left jugular vein at a rate of 0.39 ml/min for 3 min. After 2 min of compound/vehicle infusion, collagen (60 μg/kg) (Helena Laboratories,Beaumont, TX) was injected with a 1 ml syringe into the right jugular vein. The body cavity was opened and the vena cava was exposed for blood sampling. One min after the collagen injection, compound infusion was stopped and blood was sampled from the vena cava (within 30 sec) with a 3 cc syringe containing […] of 4.5% EDTA/Tris (0.1M) (pH 7.35) plus 150 μM indomethacin. Platelet rich plasma (PRP) was prepared by centrifuging the blood at 126× g for 10 min. Five μl of PRP was counted in 20 ml of Isoton® III in a Coulter Counter. Percent inhibition of collagen induced aggregation was calculated by comparison of the number of platelets counted in treated animals with numbers for animals receiving no collagen and with counts from animals receiving vehicle and collagen. Estimation of potency was based on inhibition of collagen-induced thrombocytopenia.
Four animals were tested with each compound to give the data shown.

| Molecule | inhibition at 100 µM ([1]; peptide 10^-4 M) | IC50 (washed human platelets) | inhibition at 100 µM (washed human platelets) | IC50 ([1]; read-out: IC50) | further results |
| --- | --- | --- | --- | --- | --- |
| COc1ccc(C[C@H](NC(=O)[C@H](CC(=O)O)NC(=O)CNC(=O)[C@@H](CCCNC(=N)N)NC(C)=O)C(N)=O)cc1 [Ac--(D-Arg)GD(O--methyl-Tyr)--NH2, acetyl-(D-Arg)-Gly-Asp-(O-methyltyrosine)-amide] (Ac-[dR]GDY(Me)-NH2) | 71% | – | – | – | – |
| COc1ccc(C[C@H](NC(=O)[C@H](CC(=O)O)NC(=O)CNC(=O)[C@H](CCCNC(=N)N)NC(C)=O)C(N)=O)cc1 [Ac--RGD(O--methyl-Tyr)--NH2, acetyl-Arg-Gly-Asp-(O-methyltyrosine)-amide] (Ac-RGDY(Me)-NH2) | 100% | 20 µM | 78% | 20 µM | % Inhibition at 1 mg/kg ([2]; rat, i.v. infusion): 86% |
| CC(=O)N[C@@H](CCCN=C(N)N)C(=O)NCC(=O)N[C@@H](CC(=O)O)C(=O)N[C@@H](Cc1ccc(O)cc1)C(N)=O [Ac--RGDY--NH2] (Ac-RGDY-NH2) | – | 50 µM | – | – | – |
| CC(=O)N[C@@H](CCCNC(=N)N)C(=O)NCC(=O)N[C@@H](CC(=O)O)C(=O)N[C@@H](Cc1ccc(O)cc1)C(N)=O [Ac--RGDY--NH2] (Ac-RGDY-NH2) | 48% | – | 68% | – | inhibition in the in vivo thrombocytopenia assay [2]: 85%; % Inhibition at 1 mg/kg ([2]; rat, i.v. infusion): 85% |
| N=C(N)NCCC[C@H](NC(=O)CN)C(=O)NCC(=O)N[C@@H](CC(=O)O)C(=O)N[C@@H](CO)C(=O)N1CCC[C@H]1C(N)=O [GRGDSP--NH2, reference compound] | 23% | – | 55% | – | – |
| COc1cc(C)c(CC(NC(=O)[C@H](CC(=O)O)NC(=O)CNC(=O)[C@@H](N)CCCNC(=N)N)C(N)=O)c(C)c1 (stereo partly drawn) [RGD(2,6-dimethyl-O--methyl-Tyr)--NH2, Arg-Gly-Asp-(2,6-dimethyl-O-methyltyrosine)amide] | 53% | 20 µM | 78% | – | IC50 [1]: 90 µM |
| COc1ccc(CC(NC(=O)[C@H](CC(=O)O)NC(=O)CNC(=O)[C@@H](N)CCCNC(=N)N)C(N)=O)c2ccccc12 (stereo partly drawn) [RGD(4-methoxy-1-naphthyl-Ala)--NH2, Arg-Gly-Asp-(4-methoxy-1-naphthylalanine)-amide] | 100% | – | – | 10 µM | – |
| CCOc1ccc(C[C@H](NC(=O)[C@H](CC(=O)O)NC(=O)CNC(=O)[C@@H](N)CCCNC(=N)N)C(N)=O)cc1 [RGD(O--ethyl-Tyr)--NH2, Arg-Gly-Asp-(O-ethyltyrosine)-amide] (H-RGDY(Et)-NH2) | – | – | 54% | – | – |
| COc1ccc(C[C@H](NC(=O)[C@H](CC(=O)O)NC(=O)CNC(=O)[C@@H](N)CCCNC(=N)N)C(N)=O)cc1 [RGD(O--methyl-Tyr)--NH2, Arg-Gly-Asp-(O-methyltyrosine)-amide] (H-RGDY(Me)-NH2) | 100% | 20 µM | 79% | 30 µM | – |
| N=C(N)NCCC[C@H](N)C(=O)NCC(=O)N[C@@H](CC(=O)O)C(=O)N[C@@H](Cc1ccccc1)C(N)=O [RGDF--NH2, reference compound] (H-RGDF-NH2) | 100% | – | 77% | – | – |
| NC(=O)[C@H](Cc1ccccc1)NC(=O)[C@H](CC(=O)O)NC(=O)CNC(=O)[C@@H](N)CCCN=C(N)N [RGDF--NH2, reference compound] (H-RGDF-NH2) | – | 10 µM | – | 20 µM | – |
| N=C(N)NCCC[C@H](N)C(=O)NCC(=O)N[C@@H](CC(=O)O)C(=O)N[C@@H](CO)C(=O)O [RGDS, Arg-Gly-Asp-Ser, reference compound] | 25% | – | 71% | – | – |
| N=C(N)NCCC[C@H](N)C(=O)NCC(=O)N[C@@H](CC(=O)O)C(=O)N[C@@H](Cc1ccc(O)cc1)C(N)=O [RGDY--NH2, reference compound] (H-RGDY-NH2) | – | – | 45% | – | inhibition in the in vivo thrombocytopenia assay [2]: 19%; % Inhibition at 1 mg/kg ([2]; rat, i.v. infusion): 19 ± 12%; Maximum Inhibition % ([2]; rat, i.v. infusion, collagen induced thrombocytopenia): 20% |
| COc1ccc(C[C@H](NC(=O)[C@H](CC(=O)O)NC(=O)CNC(=O)CCCCNC(=N)N)C(N)=O)cc1 [des-NH2 --RGD(O--methyl-Tyr)--NH2, des-amino-Arg-Gly-Asp-(O-methyltyrosine)-amide] | 100% | 10 µM | 90% | 20 µM | – |
| COc1ccc(C[C@H](NC(=O)[C@H](CC(=O)O)NC(=O)CNC(=O)CCCCCNC(=N)N)C(N)=O)cc1 [des-amino-(homoarginine)-Gly-Asp-(O-methyltyrosine)-amide] | 100% | 10 µM | 82% | 20 µM | – |
| Arg-Gly-Asp-(p-phenyl-phenylalanine)-amide [RGD(p-phenyl-Phe)--NH2] | – | – | – | – | % Inhibition at 10^-4 M ([1]; peptide 10^-4 M): 100% |
